pKi: −log10 of the molar value.
biological target: Neuronal acetylcholine receptor subunit alpha-4 (Rattus norvegicus, UniProt P09483)
Sequence (P09483 whole entry): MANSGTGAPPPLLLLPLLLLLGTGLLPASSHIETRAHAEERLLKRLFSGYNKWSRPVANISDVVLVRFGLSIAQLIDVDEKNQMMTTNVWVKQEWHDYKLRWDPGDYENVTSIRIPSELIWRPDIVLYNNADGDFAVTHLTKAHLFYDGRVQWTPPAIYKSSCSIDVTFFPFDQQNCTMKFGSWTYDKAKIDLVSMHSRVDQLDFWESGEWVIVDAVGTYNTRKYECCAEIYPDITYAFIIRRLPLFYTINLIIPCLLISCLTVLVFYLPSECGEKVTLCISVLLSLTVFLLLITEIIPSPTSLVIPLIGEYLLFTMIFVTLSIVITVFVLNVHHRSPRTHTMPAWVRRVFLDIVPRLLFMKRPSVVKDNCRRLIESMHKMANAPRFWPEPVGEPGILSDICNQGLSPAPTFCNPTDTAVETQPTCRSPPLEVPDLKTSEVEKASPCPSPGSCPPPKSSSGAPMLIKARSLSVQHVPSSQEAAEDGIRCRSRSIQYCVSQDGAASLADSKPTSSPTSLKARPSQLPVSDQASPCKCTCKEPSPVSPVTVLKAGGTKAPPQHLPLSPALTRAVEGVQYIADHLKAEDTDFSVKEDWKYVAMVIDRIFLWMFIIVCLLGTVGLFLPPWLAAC

`Nc1cccc(-c2cc(C3CC4CCC3N4)cnc2F)c1` (racemic) [CAS_45263775] and `COc1cccc(-c2cc(C3CC4CCC3N4)cnc2F)c1` (racemic) [CAS_45266054] are within 0.2 log units of each other in pKi: 10.00 for the first, 9.92 for the second.

First: c1cncc(C2CC3CCC2N3)c1 (centres undefined) [2-(pyridin-3-yl)-7-aza-bicyclo[2.2.1]heptane]
Second: Fc1ncc(C2CC3CCC2N3)cc1-c1ccccc1 (centres undefined) [NSC_45263762]
The pKi of the first is 1.08 log units higher: 10.70 for the first, 9.62 for the second. The first binds more tightly here.

Source: BindingDB's records for doi:10.1016/j.bmc.2007.10.027 (Research Triangle Institute, 2008)
